Laboratory results reported in the supplement of paper PMC12592484.

test system: LNCAP; assay: drug sensitivity score (DSS2, normalised partial AUC of dose-response, 72 h CellTiter-Glo viability) (DSS (dimensionless)); higher = more sensitive (stronger growth inhibition / cytotoxicity); extreme values may be limits of the assay
Method in brief: (§1)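 Low-passage primary prostate cancer-associated fibroblasts, PF179T, WPMY-1, LNCaP and 22Rv1 cells were seeded into 384-well plates carrying pre-dispensed compounds at five doses covering a 10,000-fold range. After 72 h, viability was read by CellTiter-Glo 2.0 luminescence. Responses were scaled to vehicle and positive-control wells. The drug sensitivity score (DSS2) is a partial area under the fitted logistic dose–response curve divided by the log of its upper asymptote, computed in BREEZE; higher means more sensitive.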

SMILES	drug sensitivity score
COc1cc(Nc2ncc3c(n2)-c2ccc(Cl)cc2C(c2c(F)cccc2OC)=NC3)ccc1C(=O)O [Alisertib] (tested concentration range 1-10000 nM)	9.6
Oc1ncnc2[nH]ncc12 [Allopurinol] (tested concentration range 1-10000 nM)	0
Cc1nc(NC(=O)N2CCC[C@H]2C(N)=O)sc1-c1ccnc(C(C)(C)C(F)(F)F)c1 [Alpelisib] (tested concentration range 0.2-2500 nM)	1.1
CN1CC[C@H](c2c(O)cc(O)c3c(=O)cc(-c4ccccc4Cl)oc23)[C@H](O)C1 [Alvocidib] (tested concentration range 1-10000 nM)	18.2
CCN(CC)CCNC(=O)c1c(C)[nH]c(/C=C2\C(=O)Nc3ccc(-c4csc(-c5ccccc5)n4)cc32)c1C [Amcasertib] (tested concentration range 1-10000 nM)	3.5
CCC1(c2ccc(N)cc2)CCC(=O)NC1=O (stereo not drawn) [Aminoglutethimide] (tested concentration range 1-10000 nM)	0.3
COc1cc(NS(C)(=O)=O)ccc1Nc1c2ccccc2nc2ccccc12 [Amsacrine] (tested concentration range 1-10000 nM)	17
O=C1CN2Cc3c(ccc(Cl)c3Cl)N=C2N1 [Anagrelide] (tested concentration range 1-10000 nM)	0
CC(C)(C#N)c1cc(Cn2cncn2)cc(C(C)(C)C#N)c1 [Anastrozole] (tested concentration range 1-10000 nM)	0
CNC(=O)c1ccc(N2C(=S)N(c3cnc(C#N)c(C(F)(F)F)c3)C(=O)C23CCC3)cc1F [Apalutamide] (tested concentration range 1-10000 nM)	2.7
N#CC1(c2ccc(NC(=O)c3cccnc3NCc3ccncc3)cc2)CCCC1 [Apatinib] (tested concentration range 1-10000 nM)	5.8
O=C(Nc1ccc(OC(F)(F)Cl)cc1)c1cnc(N2CC[C@@H](O)C2)c(-c2cc[nH]n2)c1 [Asciminib] (tested concentration range 0.1-1000 nM)	0
CC(C)c1c(C(=O)Nc2ccccc2)c(-c2ccccc2)c(-c2ccc(F)cc2)n1CC[C@@H](O)C[C@@H](O)CC(=O)O [Atorvastatin] (tested concentration range 1-10000 nM)	1.1
CC(=O)OC[C@H]1O[C@@H]([S-])[C@H](OC(C)=O)[C@@H](OC(C)=O)[C@@H]1OC(C)=O.CCP(CC)CC.[Au+] [Auranofin] (tested concentration range 0.2-2500 nM)	13.1
Cc1nc2cccc(N)c2c(=O)n1C1CCC(=O)NC1=O (stereo not drawn) [Avadomide] (tested concentration range 1-10000 nM)	0
CNC(=O)c1ccccc1Sc1ccc2c(/C=C/c3ccccn3)n[nH]c2c1 [Axitinib] (tested concentration range 1-10000 nM)	5.7
Nc1ncn([C@@H]2O[C@H](CO)[C@@H](O)[C@H]2O)c(=O)n1 [Azacitidine] (tested concentration range 1-10000 nM)	2.4
Cc1cc(-c2nc(-c3ccc(OC(F)(F)F)cc3)no2)nn1Cc1ccnc(N2CCN(C3CC3)CC2)c1 [BAY 87-2243] (tested concentration range 0.1-1000 nM)	24.8

test system: PF179T; assay: as above
Method in brief: as §1

SMILES	drug sensitivity score
CC#CC(=O)N1CCC[C@H]1c1nc(-c2ccc(C(=O)Nc3ccccn3)cc2)c2c(N)nccn12 [Acalabrutinib] (tested concentration range 0.1-1000 nM)	0
COc1cc(C)c(/C=C/C(C)=C/C=C/C(C)=C/C(=O)O)c(C)c1C [Acitretin] (tested concentration range 1-10000 nM)	6.3
C=CCn1c(=O)c2cnc(Nc3ccc(N4CCN(C)CC4)cc3)nc2n1-c1cccc(C(C)(C)O)n1 [Adavosertib] (tested concentration range 1-10000 nM)	10.4
CN(C)C/C=C/C(=O)Nc1cc2c(Nc3ccc(F)c(Cl)c3)ncnc2cc1O[C@H]1CCOC1 [Afatinib] (tested concentration range 0.1-1000 nM)	0
Cn1ncc(Cl)c1-c1cc(C(=O)N[C@H](CN)Cc2cccc(F)c2)sc1Cl [Afuresertib] (tested concentration range 0.1-1000 nM)	0.1
CCc1cc2c(cc1N1CCC(N3CCOCC3)CC1)C(C)(C)c1[nH]c3cc(C#N)ccc3c1C2=O [Alectinib] (tested concentration range 0.1-1000 nM)	0
COc1cc(Nc2ncc3c(n2)-c2ccc(Cl)cc2C(c2c(F)cccc2OC)=NC3)ccc1C(=O)O [Alisertib] (tested concentration range 1-10000 nM)	7.6
Oc1ncnc2[nH]ncc12 [Allopurinol] (tested concentration range 1-10000 nM)	0
Cc1nc(NC(=O)N2CCC[C@H]2C(N)=O)sc1-c1ccnc(C(C)(C)C(F)(F)F)c1 [Alpelisib] (tested concentration range 0.2-2500 nM)	0
CN1CC[C@H](c2c(O)cc(O)c3c(=O)cc(-c4ccccc4Cl)oc23)[C@H](O)C1 [Alvocidib] (tested concentration range 1-10000 nM)	10
CCN(CC)CCNC(=O)c1c(C)[nH]c(/C=C2\C(=O)Nc3ccc(-c4csc(-c5ccccc5)n4)cc32)c1C [Amcasertib] (tested concentration range 1-10000 nM)	0
CCC1(c2ccc(N)cc2)CCC(=O)NC1=O (stereo not drawn) [Aminoglutethimide] (tested concentration range 1-10000 nM)	0
COc1cc(NS(C)(=O)=O)ccc1Nc1c2ccccc2nc2ccccc12 [Amsacrine] (tested concentration range 1-10000 nM)	7.7
O=C1CN2Cc3c(ccc(Cl)c3Cl)N=C2N1 [Anagrelide] (tested concentration range 1-10000 nM)	0
CC(C)(C#N)c1cc(Cn2cncn2)cc(C(C)(C)C#N)c1 [Anastrozole] (tested concentration range 1-10000 nM)	0
